Data taken from ChEMBL document CHEMBL4251606, “Design and characterization of α-lipoic acyl shikonin ester twin drugs as tubulin and PDK1 dual inhibitors” (Eur J Med Chem, 2018).
Active and inactive are the calls of the source. The calls are words filed in the database; no cut-off is given here.

Experiments:
MDA-MB-231 = experiment: Antiproliferative activity against human MDA231 cells after 24 hrs by MTT assay; type: functional, cell-based; settings: MDA-MB-231, 24 h
L02 = experiment: Antiproliferative activity against human LO2 cells after 24 hrs by MTT assay; type: cell-based; settings: L02, 24 h
HeLa [1] = experiment: Cell cycle arrest in human HeLa cells assessed as accumulation of cells at G1 phase at 2 uM after 24 hrs by propidium iodide staining-based FACScan flow cytometric analysis (reference value: 62.92%); type: functional
HeLa [2] = experiment: Cell cycle arrest in human HeLa cells assessed as accumulation of cells at S phase at 2 uM after 24 hrs by propidium iodide staining-based FACScan flow cytometric analysis (reference value: 20.16%); type: functional
HeLa [3] = experiment: Cell cycle arrest in human HeLa cells assessed as accumulation of cells at G1 phase at 4 uM after 24 hrs by propidium iodide staining-based FACScan flow cytometric analysis (reference value: 62.92%); type: functional
HeLa [4] = experiment: Cell cycle arrest in human HeLa cells assessed as accumulation of cells at G1 phase at 8 uM after 24 hrs by propidium iodide staining-based FACScan flow cytometric analysis (reference value: 62.92%); type: functional
HeLa [5] = experiment: Cell cycle arrest in human HeLa cells assessed as accumulation of cells at S phase at 8 uM after 24 hrs by propidium iodide staining-based FACScan flow cytometric analysis (reference value: 20.16%); type: functional
[6] = target: [Pyruvate dehydrogenase (acetyl-transferring)] kinase isozyme 1, mitochondrial (Homo sapiens) (UniProt Q15118); experiment: Inhibition of PDK1 in human HeLa cells assessed as increase in PDH activity at 1 to 1.5 uM by microplate assay; type: cell-based
[7] = target: [Pyruvate dehydrogenase (acetyl-transferring)] kinase isozyme 1, mitochondrial (Homo sapiens) (UniProt Q15118); experiment: Inhibition of PDK1 in human HeLa cells assessed as decrease in PDH-E1 alpha p-ser232 expression up to 8 uM by Western blot analysis; type: cell-based
[8] = target: [Pyruvate dehydrogenase (acetyl-transferring)] kinase isozyme 1, mitochondrial (Homo sapiens) (UniProt Q15118); experiment: Inhibition of PDK1 in human HeLa cells assessed as decrease in PDH-E1 alpha p-ser293 expression up to 8 uM by Western blot analysis; type: cell-based
HeLa [9] = experiment: Induction of apoptosis in human HeLa cells assessed as viable cells at 1 uM after 24 hrs by Annexin V-APC/propidium iodide staining-based FACScan flow cytometric analysis (reference value: 85.1%); type: functional; settings: read-out: Activity
HeLa [10] = experiment: Induction of apoptosis in human HeLa cells assessed as early apoptotic cells at 1 uM after 24 hrs by Annexin V-APC/propidium iodide staining-based FACScan flow cytometric analysis (reference value: 6.46%); type: functional
HeLa [11] = experiment: Induction of apoptosis in human HeLa cells assessed as late apoptotic cells at 1 uM after 24 hrs by Annexin V-APC/propidium iodide staining-based FACScan flow cytometric analysis (reference value: 7.22%); type: functional
HeLa [12] = experiment: Induction of apoptosis in human HeLa cells assessed as necrotic cells at 1 uM after 24 hrs by Annexin V-APC/propidium iodide staining-based FACScan flow cytometric analysis (reference value: 1.18%); type: functional
HeLa [13] = experiment: Induction of apoptosis in human HeLa cells assessed as viable cells at 2 uM after 24 hrs by Annexin V-APC/propidium iodide staining-based FACScan flow cytometric analysis (reference value: 85.1%); type: functional; settings: read-out: Activity
HeLa [14] = experiment: Induction of apoptosis in human HeLa cells assessed as early apoptotic cells at 4 uM after 24 hrs by Annexin V-APC/propidium iodide staining-based FACScan flow cytometric analysis (reference value: 6.46%); type: functional
HeLa [15] = experiment: Induction of apoptosis in human HeLa cells assessed as viable cells at 6 uM after 12 hrs by Annexin V-APC/propidium iodide staining-based FACScan flow cytometric analysis (reference value: 93%); type: functional; settings: read-out: Activity
HeLa [16] = experiment: Induction of apoptosis in human HeLa cells assessed as necrotic cells at 6 uM after 12 hrs by Annexin V-APC/propidium iodide staining-based FACScan flow cytometric analysis (reference value: 0.725%); type: functional
HeLa [17] = experiment: Induction of apoptosis in human HeLa cells assessed as viable cells at 6 uM after 24 hrs by Annexin V-APC/propidium iodide staining-based FACScan flow cytometric analysis (reference value: 93%); type: functional; settings: read-out: Activity
HeLa [18] = experiment: Induction of apoptosis in human HeLa cells assessed as late apoptotic cells at 6 uM after 24 hrs by Annexin V-APC/propidium iodide staining-based FACScan flow cytometric analysis (reference value: 3.84%); type: functional
HeLa [19] = experiment: Induction of apoptosis in human HeLa cells assessed as viable cells at 6 uM after 36 hrs by Annexin V-APC/propidium iodide staining-based FACScan flow cytometric analysis (reference value: 93%); type: functional; settings: read-out: Activity
HeLa [20] = experiment: Induction of apoptosis in human HeLa cells assessed as increase in caspase-3 cleavage up to 8 uM after 24 hrs by Western blot analysis; type: functional, cell-based
HeLa [21] = experiment: Induction of apoptosis in human HeLa cells assessed as increase in Bax expression up to 8 uM after 24 hrs by Western blot analysis; type: functional, cell-based
HeLa [22] = experiment: Induction of mitochondrial membrane potential loss in human HeLa cells assessed as cells with high membrane potential at 2 uM after 12 hrs by JC-1 staining-based flow cytometric analysis (reference value: 85.8%); type: functional
HeLa [23] = experiment: Induction of mitochondrial membrane potential loss in human HeLa cells assessed as cells with high membrane potential at 4 uM after 12 hrs by JC-1 staining-based flow cytometric analysis (reference value: 85.8%); type: functional
HeLa [24] = experiment: Induction of mitochondrial membrane potential loss in human HeLa cells assessed as cells with low membrane potential at 2 uM after 12 hrs by JC-1 staining-based flow cytometric analysis (reference value: 9.31%); type: functional
HeLa [25] = experiment: Antitumor activity against human HeLa cells xenografted in nude mouse assessed as reduction in tumor volume administered intraperitomeally once in every 2 days for 15 days; type: functional
HeLa [26] = experiment: Antitumor activity against human HeLa cells xenografted in nude mouse assessed as reduction in tumor size at 1 mg/kg, ip administered once in every 2 days for 15 days relative to control; type: functional, organism-based
Mus musculus = experiment: Toxicity in nude mouse xenografted with human HeLa cells assessed as loss in body weight at 0.5 to 2 mg/kg, ip administered once in every 2 days for 15 days; type: organism-based; settings: in vivo
HeLa [27] = experiment: Induction of apoptosis in human HeLa cells assessed as late apoptotic cells by measuring FL3-H+ cells at 2.8 uM after 24 hrs by propidium iodide staining-based FACScan flow cytometric analysis (reference value: 2.14%); type: functional
HeLa [28] = experiment: Induction of apoptosis in human HeLa cells assessed as late apoptotic cells by measuring FL3-H+ cells at 6 uM after 12 hrs by propidium iodide staining-based FACScan flow cytometric analysis (reference value: 2.13%); type: functional
HeLa [29] = experiment: Induction of apoptosis in human HeLa cells assessed as late apoptotic cells by measuring FL3-H+ cells at 6 uM after 24 hrs by propidium iodide staining-based FACScan flow cytometric analysis (reference value: 2.13%); type: functional
Homo sapiens = organism: Homo sapiens; experiment: Inhibition of microtubule polymerization (unknown origin) at 4 uM after 24 hrs by immunoblot
[30] = target: [Pyruvate dehydrogenase (acetyl-transferring)] kinase isozyme 1, mitochondrial (Homo sapiens) (UniProt Q15118); experiment: Inhibition of PDK1 in human HeLa cells assessed as decrease in PDH-E1 alpha p-ser232 expression at 6 uM by Western blot analysis; type: cell-based

Question: For `CC(C)=CC[C@@H](OC(=O)CCCC[C@@H]1CCSC(c2ccccc2)S1)C1=CC(=O)c2c(O)ccc(O)c2C1=O` (some centres undefined), which IC50 (MDA-MB-231) is on record?
Answer: 17.7 µM

Question: What about the IC50 (L02) of the same molecule?
Answer: 116 µM

Question: What about the Activity (HeLa [1]) of the same molecule?
Answer: 50.96%

Question: What about the Activity (HeLa [2]) of the same molecule?
Answer: 16.37%

Question: And the Activity (HeLa [3])?
Answer: 25.74%

Question: And the Activity (HeLa [4])?
Answer: 15.42%

Question: And the Activity (HeLa [5])?
Answer: 32.14%

Question: And the inhibition [6]?
Answer: Active

Question: What about the inhibition [7] of the same molecule?
Answer: Active

Question: And the inhibition [8]?
Answer: inactive

Question: What about the viability at 1 µM (HeLa [9]) of the same molecule?
Answer: 37%

Question: And the Activity (HeLa [10])?
Answer: 15.8%

Question: What about the Activity (HeLa [11]) of the same molecule?
Answer: 42.7%

Question: What about the Activity (HeLa [12]) of the same molecule?
Answer: 4.46%

Question: And the viability at 2 µM (HeLa [13])?
Answer: 23.6%

Question: And the Activity (HeLa [14])?
Answer: 6.67%

Question: What about the viability at 6 µM (HeLa [15]) of the same molecule?
Answer: 48.8%

Question: What about the Activity (HeLa [16]) of the same molecule?
Answer: 2.31%

Question: And the viability at 6 µM (HeLa [17])?
Answer: 29.1%

Question: What about the Activity (HeLa [18]) of the same molecule?
Answer: 34.8%

Question: And the viability at 6 µM (HeLa [19])?
Answer: 26.4%

Question: What about the Activity (HeLa [20]) of the same molecule?
Answer: Active

Question: And the Activity (HeLa [21])?
Answer: Active

Question: What about the Activity (HeLa [22]) of the same molecule?
Answer: 42.1%

Question: What about the Activity (HeLa [23]) of the same molecule?
Answer: 10.3%

Question: What about the Activity (HeLa [24]) of the same molecule?
Answer: 53%

Question: What about the Activity (HeLa [25]) of the same molecule?
Answer: Dose-dependent effect

Question: What about the Activity (HeLa [26]) of the same molecule?
Answer: Active

Question: And the Activity (Mus musculus)?
Answer: Non-Toxic

Question: And the Activity (HeLa [27])?
Answer: 37.5%

Question: What about the Activity (HeLa [28]) of the same molecule?
Answer: 10%

Question: And the Activity (HeLa [29])?
Answer: 43.5%

Question: What about the inhibition (Homo sapiens) of the same molecule?
Answer: Active

Question: What about the inhibition [30] of the same molecule?
Answer: Active
